According to PMC4755858 (Biochemistry, 2016):
Read-outs that look alike come from different tables or passages of the source.

Columns and labels:
[1] = target: T1, phosphodiesterase protein GdpP (GdpP84–659) (Bacillus subtilis, UniProt P37484); assay: HPLC phosphodiesterase assay, degradation rates of c-di-AMP and analogs; assay type: biochemical; conditions: for Fold Change: hydrolysis rate relative to c-di-AMP (fold slower); for degradation by GdpP (in words): HPLC assay, incubation up to 24 h
T1 sequence (P37484 84-659): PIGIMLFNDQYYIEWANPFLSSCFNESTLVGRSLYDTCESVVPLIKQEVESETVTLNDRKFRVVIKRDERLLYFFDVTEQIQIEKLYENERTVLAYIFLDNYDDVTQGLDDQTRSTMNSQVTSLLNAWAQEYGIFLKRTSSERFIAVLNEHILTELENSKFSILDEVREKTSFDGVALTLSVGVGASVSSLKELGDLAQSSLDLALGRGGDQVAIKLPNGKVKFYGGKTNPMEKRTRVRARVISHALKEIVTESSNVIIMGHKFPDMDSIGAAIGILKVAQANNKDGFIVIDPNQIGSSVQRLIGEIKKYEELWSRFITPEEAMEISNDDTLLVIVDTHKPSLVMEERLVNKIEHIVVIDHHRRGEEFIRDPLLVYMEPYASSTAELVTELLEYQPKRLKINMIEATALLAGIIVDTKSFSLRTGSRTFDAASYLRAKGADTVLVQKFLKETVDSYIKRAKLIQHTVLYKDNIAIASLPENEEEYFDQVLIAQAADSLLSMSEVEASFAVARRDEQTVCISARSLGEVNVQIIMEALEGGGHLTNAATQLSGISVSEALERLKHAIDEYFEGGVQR

[2] = system: wild-type ydaO riboswitch; assay: gel-shift; assay type: binding, Bacillus subtilis; conditions: for ΔΔGbind: ΔGbind(analog) − ΔGbind(c-di-AMP); for binding to ydaO riboswitch (in words): competition gel-shift, highest analog concentration tested (≥200 µM); for binding energy weaker than the corresponding deoxy variant: 2’-fluoro versus 2’-deoxy analog (c-dA-AMP or c-di-dAMP)
[3] = target: phosphodiesterase protein GdpP (Bacillus subtilis, UniProt P37484); assay: competition phosphodiesterase assay; conditions: for effect on c-di-AMP degradation by GdpP (in words): excess unlabeled competitor analog; for Fold Change: Ki relative to Km of c-di-AMP (130 µM)
phosphodiesterase protein GdpP, sequence (P37484 84-659): as above

[4] = target: ydaO riboswitch ΔSite1 mutant; assay: gel-shift binding to ydaO binding-site mutant ΔSite1; conditions: for Kd: read-out: Ligand Kd; for Kd / fold loss in affinity compared to native ligand: ΔSite1 construct; for fold loss in affinity compared to native ligand: versus c-di-AMP
[5] = system: ydaO riboswitch Site 1U construct; assay: gel-shift binding to ydaO G-U mutant Site 1U
[6] = target: T1, phosphodiesterase protein GdpP (GdpP84–659); assay: steady-state kinetics; assay type: biochemical
[7] = target: ydaO riboswitch ΔSite2 mutant; assay: gel-shift binding to ydaO binding-site mutant ΔSite2; conditions: for Kd: read-out: Ligand Kd; for Kd / fold loss in affinity compared to native ligand: ΔSite2 construct; for fold loss in affinity compared to native ligand: versus c-di-AMP
[8] = system: ydaO riboswitch ΔSite1 mutant; conditions: cited from earlier work
[9] = system: wild-type ydaO riboswitch; conditions: cited from earlier work
[10] = system: ydaO riboswitch Site 2U construct; assay: gel-shift binding to ydaO G-U mutant Site 2U
[11] = system: ydaO riboswitch, both binding sites mutated; assay: gel-shift binding to ydaO construct with both binding sites mutated; conditions: both binding sites mutated in a single construct
[12] = target: T1, phosphodiesterase protein GdpP (GdpP84–659); conditions: cited from earlier work
[13] = loss in affinity for wild-type ydaO relative to c-di-AMP

Structure (SMILES) | Fold Change [1] | ΔΔGbind ([2]; wild-type ydaO) [kcal/mol] | effect on c-di-AMP degradation by GdpP (in words) [3] | Fold Loss [2, 13] | Ki [3] [µM] | Fold Change [3] | further results
Nc1ncnc2c1ncn2[C@@H]1O[C@@H]2COP(=O)(O)O[C@H]3[C@@H](O)[C@H](n4cnc5c(=O)[nH]cnc54)O[C@@H]3COP(=O)(O)O[C@H]2[C@H]1O [c-AMP-IMP] | 3.3 | 4.3 | – | – | – | – | –
COC1C2OP(=O)(O)OCC3OC(n4cnc5c(N)ncnc54)C(O)C3OP(=O)(O)OCC2OC1n1cnc2c(N)ncnc21 (centres unmarked) [c-2’OMe-A-AMP] | 30 | – | – | – | – | – | Fold Loss [2]: 620
Nc1ncnc2c1ncn2C1CC2OP(=O)(O)OCC3OC(n4cnc5c(N)ncnc54)C(O)C3OP(=O)(O)OCC2O1 (centres unmarked) [c-dA-AMP] | 1.2 | 1.8 | measurable deficiency in linearization | – | – | – | Fold Loss [2]: 20
O=c1[nH]cnc2c1ncn2[C@@H]1O[C@@H]2COP(=O)(O)O[C@H]3[C@@H](O)[C@H](n4cnc5c(=O)[nH]cnc54)O[C@@H]3COP(=O)(O)O[C@H]2[C@H]1O [c-di-IMP] | ≥ 4100 | 4.9 | – | 3600 | – | – | –
CO[C@@H]1[C@@H]2OP(=O)(O)OC[C@H]3O[C@@H](n4cnc5c(N)ncnc54)[C@H](OC)[C@@H]3OP(=O)(O)OC[C@H]2O[C@H]1n1cnc2c(N)ncnc21 [c-di-2’OMe-AMP] | ≥ 4100 | > 8.8 | reduced degradation velocity | > 2.9 × 10^6 | 15 ± 2.5 | 0.12 | binding to ydaO riboswitch (in words) [2]: no detectable affinity
Nc1ncnc2c1ncn2[C@@H]1O[C@@H]2COP(=O)(O)O[C@H]3C[C@H](n4cnc5c(N)ncnc54)O[C@@H]3COP(=O)(O)O[C@H]2[C@H]1F [c-dA-2’F-A] | ≥ 4100 | 3.7 | reduced degradation velocity | 530 | 9.4 ± 0.8 | 0.07 | improvement in binding energy by replacing a 2’-fluoro substituent with a 2’-deoxy group ([2]; wild-type ydaO): ~1.4 kcal/mol
Nc1ncnc2c1ncn2[C@@H]1O[C@@H]2COP(=O)(O)O[C@H]3[C@@H](F)[C@H](n4cnc5c(N)ncnc54)O[C@@H]3COP(=O)(O)O[C@H]2[C@H]1O [c-2’F-A-AMP] | 24 | 2.3 | – | – | – | – | Fold Loss [2]: 47; binding energy weaker than the corresponding deoxy variant ([2]; wild-type ydaO): ~0.5 kcal/mol
Nc1ncnc2c1ncn2[C@@H]1O[C@@H]2COP(=O)(O)O[C@H]3[C@@H](F)[C@H](n4cnc5c(N)ncnc54)O[C@@H]3COP(=O)(O)O[C@H]2[C@H]1F [c-di-2’F-AMP] | ≥ 4100 | 5.1 | reduced degradation velocity | 5100 | 26 ± 3.6 | 0.2 | binding energy weaker than the corresponding deoxy variant ([2]; wild-type ydaO): more than 1.7 kcal/mol
Nc1ncnc2c1ncn2[C@@H]1O[C@@H]2COP(=O)(O)O[C@H]3[C@@H](O)[C@H](n4cnc5c(N)ncnc54)O[C@@H]3COP(=O)(O)O[C@H]2[C@H]1O [c-di-AMP, (3’-5’)-cyclic diadenosine monophosphate] | – | – | – | – | – | – | initial rate of hydrolysis ([1]; 100 µM substrate, 1 µM GdpP): 4.1 min⁻¹; degradation of c-di-AMP after 60 min (in words) ([1]; HPLC traces, experimental conditions used): completely degraded; Kd [4]: 5.5 ± 0.3 nM; Hill coefficient ([4]; ΔSite1 mutant): 1; fold lower affinity than the ΔSite mutants ([5]; Site 1U (G-U wobble) construct): less than 10 fold; Hill coefficient ([5]; Site 1U construct): 1; Km ([6]; c-di-AMP as substrate of GdpP): 130 µM; rate of c-di-AMP hydrolysis (kcat) ([6]; steady-state, substrate 3 to 800 µM, 200 nM GdpP): 0.26 ± 0.02 s⁻¹; Vmax, maximum reaction velocity ([6]; used in Ki equation): 15.6 min⁻¹; Kd [7]: 3.3 ± 0.5 nM; Hill coefficient ([7]; ΔSite2 mutant): 1; fold loss in affinity compared with wild-type ydaO ([7]; ΔSite2 mutant versus wild-type): 6 fold; binding to Site 2 when Site 1 was mutated (in words) [8]: No measurable binding; selectivity of ydaO binding over c-di-GMP and c-AMP-GMP [9]: more than 100,000 fold; Hill coefficient ([2]; c-di-AMP binding curve, wild-type ydaO, cooperative binding model): 1.6; fold lower affinity than the ΔSite mutants ([10]; Site 2U (G-U wobble) construct): less than 10 fold; Hill coefficient ([10]; Site 2U construct): 1; affinity for the riboswitch (in words) [11]: disrupted c-di-AMP affinity; rate of c-di-AMP hydrolysis, previously published value [12]: 0.55 ± 0.02 s⁻¹
Nc1ncnc2c1ncn2[C@@H]1O[C@@H]2CO[P@@](=O)(S)O[C@H]3[C@@H](O)[C@H](n4cnc5c(N)ncnc54)O[C@@H]3CO[P@](=O)(S)O[C@H]2[C@H]1O [c-(RpSp)-di-Aps] | ≥ 4100 | 0.6 | – | 2.9 | 210 ± 17 | 1.6 | degradation by GdpP (in words) [1]: No detectable degradation; Kd [4]: 9.4 ± 1.1 nM; fold loss in affinity compared to native ligand [4]: 2 fold; Kd [7]: 5.4 ± 0.4 nM; fold loss in affinity compared to native ligand [7]: 2 fold; Fold Change ([3]; listed as RpSp): ≤ 2
Nc1ncnc2c1ncn2[C@@H]1O[C@@H]2CO[P@@](=O)(S)O[C@H]3[C@@H](O)[C@H](n4cnc5c(N)ncnc54)O[C@@H]3CO[P@@](=O)(S)O[C@H]2[C@H]1O [c-(RpRp)-di-Aps] | ≥ 4100 | 0.4 | – | 1.8 | 260 ± 2.7 | 2.0 | degradation by GdpP (in words) [1]: No detectable degradation; Kd [4]: 11.3 ± 0.8 nM; fold loss in affinity compared to native ligand [4]: 2 fold; Kd [7]: 6.2 ± 0.5 nM; fold loss in affinity compared to native ligand [7]: 2 fold; Fold Change ([3]; listed as RpRp): ≤ 2
Nc1ncnc2c1ncn2[C@H]1C[C@@H]2OP(=O)(O)OC[C@H]3O[C@@H](n4cnc5c(N)ncnc54)C[C@@H]3OP(=O)(O)OC[C@H]2O1 [c-di-dAMP] | ≥ 4100 | 3.4 | reduced degradation velocity | 290 | 200 ± 18 | 1.5 | loss in ligand affinity ([9]; previously reported): up to 100 fold
Nc1nc2c(ncn2[C@@H]2O[C@@H]3COP(=O)(O)O[C@H]4[C@@H](O)[C@H](n5cnc6c(=O)[nH]c(N)nc65)O[C@@H]4COP(=O)(O)O[C@H]3[C@H]2O)c(=O)[nH]1 [c-di-GMP, (3’-5’)-cyclic diguanosine monophosphate, reference compound] | – | > 10 | – | – | – | – | binding to ydaO riboswitch (in words) [2]: no detectable binding
